The values that follow are results of earlier work, collected in patent US20230021879A1, “SYNTHESIS OF 3 -RNA OLIGONUCLEOTIDES” (ALNYLAM PHARMACEUTICALS, INC., priority 2019, published 2023).

The target in the data set is P-glycoprotein 1 (P-gp) (Homo sapiens, UniProt P08183). The following applies: earlier studies.
Chain of P-glycoprotein 1 (P-gp) (P08183 whole entry, species assumed): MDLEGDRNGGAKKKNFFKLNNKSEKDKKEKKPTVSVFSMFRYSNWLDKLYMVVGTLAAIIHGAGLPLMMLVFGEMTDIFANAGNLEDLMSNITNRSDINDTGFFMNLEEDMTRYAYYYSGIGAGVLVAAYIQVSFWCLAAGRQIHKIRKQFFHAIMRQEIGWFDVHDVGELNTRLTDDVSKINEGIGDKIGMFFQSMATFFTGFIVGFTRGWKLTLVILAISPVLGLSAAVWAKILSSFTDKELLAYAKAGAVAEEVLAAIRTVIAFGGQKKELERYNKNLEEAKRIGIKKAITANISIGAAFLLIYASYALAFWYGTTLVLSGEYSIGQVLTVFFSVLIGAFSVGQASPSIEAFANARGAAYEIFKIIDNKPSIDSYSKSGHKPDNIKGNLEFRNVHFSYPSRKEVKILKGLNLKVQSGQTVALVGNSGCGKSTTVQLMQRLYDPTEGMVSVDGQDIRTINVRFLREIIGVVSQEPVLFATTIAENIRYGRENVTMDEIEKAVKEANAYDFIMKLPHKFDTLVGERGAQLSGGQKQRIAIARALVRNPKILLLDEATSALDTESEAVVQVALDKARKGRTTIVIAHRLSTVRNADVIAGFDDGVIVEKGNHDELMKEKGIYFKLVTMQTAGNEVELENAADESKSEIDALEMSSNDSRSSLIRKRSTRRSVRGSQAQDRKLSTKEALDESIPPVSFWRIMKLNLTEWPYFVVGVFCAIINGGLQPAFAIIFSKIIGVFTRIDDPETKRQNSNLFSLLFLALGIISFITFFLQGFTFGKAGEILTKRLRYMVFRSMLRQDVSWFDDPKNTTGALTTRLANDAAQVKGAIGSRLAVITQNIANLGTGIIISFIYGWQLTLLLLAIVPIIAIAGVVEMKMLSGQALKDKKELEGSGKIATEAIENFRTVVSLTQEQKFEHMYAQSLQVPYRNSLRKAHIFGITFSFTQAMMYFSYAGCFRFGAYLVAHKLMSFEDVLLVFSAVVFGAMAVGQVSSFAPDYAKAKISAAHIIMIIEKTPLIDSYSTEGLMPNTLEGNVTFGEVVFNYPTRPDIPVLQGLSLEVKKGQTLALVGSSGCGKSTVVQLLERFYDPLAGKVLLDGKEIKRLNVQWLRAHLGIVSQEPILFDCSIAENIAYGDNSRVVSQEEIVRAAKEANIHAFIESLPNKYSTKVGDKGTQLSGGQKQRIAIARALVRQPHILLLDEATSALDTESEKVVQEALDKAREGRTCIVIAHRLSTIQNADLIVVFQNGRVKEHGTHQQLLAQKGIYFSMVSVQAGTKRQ

Regarding `C[C@@H]1O[C@@H](O[C@H]2C[C@](O)(C(=O)CO)Cc3c(O)c4c(c(O)c32)C(=O)c2ccccc2C4=O)[C@H](I)[C@H](O)[C@H]1O` [Annamycin, (7S,9S)-7-(((2R,3R,4R,5R,6S)-4,5-dihydroxy-3-iodo-6-methyltetrahydro-2H-pyran-2-yl)oxy)-6,9,11-trihydroxy-9-(2-hydroxyacetyl)-7,8,9,10-tetrahydrotetracene-5,12-dione], the P-gp substrate status result is recorded as “poor substrate”.
